Test results from PubChem BioAssay (NCI).
Values joined by “and” are separate entries in the source; they are usually repeats but may differ in a detail not shown here. Equal entries are not always repeated.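 Each compound was tested at five concentrations against cells in 96-well plates for 48 hours. At the GI50, growth is halved. At the TGI there is no net growth.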

Key:
Assay in all cases: growth of human tumour cells (NCI), 48 h
[1] = tested on: OVCAR-5 ovarian
[2] = tested on: MOLT-4 leukemia
[3] = tested on: KM12 colon
[4] = tested on: UO-31 renal
[5] = tested on: MALME-3M melanoma
[6] = tested on: NCI-H23 lung
[7] = tested on: NCI-H226 lung
[8] = tested on: A498 renal
[9] = tested on: CAKI-1 renal
[10] = tested on: T-47D breast

In the case of `N#CC1(Cc2ccc(N)cc2)c2ccccc2C=CN1C(=O)c1ccccc1` (stereo not drawn), the TGI [1] is reported as over 100 µM, the TGI [2] is reported as over 100 µM and the TGI [3] is reported as over 100 µM. For the same compound, the TGI [4] was 84.2 µM, the TGI [5] was over 100 µM and the TGI [6] was over 100 µM. For the same compound, the TGI [7] was over 100 µM and the TGI [8] was over 100 µM.
Work on `CC(C)CC(=O)[O-].CC(C)CC(=O)[O-].N.N.N.N.[Co+3].[O-][Cl+3]([O-])([O-])[O-]` yielded a GI50 [1] of over 100 µM, a TGI [1] of over 100 µM and a GI50 [2] of over 100 µM. The TGI [2] was over 100 µM, the GI50 [3] was over 100 µM and the TGI [3] was over 100 µM. The GI50 [4] was 84.7 µM and > 100 µM, the TGI [4] was over 100 µM and the GI50 [5] was over 100 µM. For the same compound, the TGI [5] was over 100 µM, the GI50 [6] was over 100 µM and the TGI [6] was over 100 µM. For the same compound, the GI50 [8] was over 100 µM and the TGI [8] was over 100 µM.
Compound `COC(=O)C1=C(C(=O)OC)C2C=CC1C1C(Cl)=C(Cl)C21` (stereo not drawn) has a TGI [1] of over 100 µM, a TGI [2] of over 100 µM and a TGI [3] of over 100 µM. It also gave a TGI [4] of over 100 µM, a TGI [9] of over 100 µM and a TGI [5] of over 100 µM. For the same compound, the TGI [6] was over 100 µM.
With `N#C/C(=C/c1ccsc1)C(=O)c1ccccc1` the TGI [1] was over 100 µM, the TGI [2] was over 100 µM and the TGI [3] was over 100 µM. For the same compound, the TGI [4] was over 100 µM, the TGI [9] was over 100 µM and the TGI [5] was over 100 µM. The TGI [6] was over 100 µM and the TGI [7] was over 100 µM.
Work on `CCCCNC1=C(C(=O)OCC)C(=O)CO1` yielded a TGI [1] of over 100 µM, a TGI [2] of over 100 µM and a TGI [3] of over 100 µM. The TGI [4] was over 100 µM, the TGI [9] was over 100 µM and the TGI [5] was over 100 µM. For the same compound, the TGI [6] was over 100 µM and the TGI [7] was over 100 µM.
Work on `O=C1C=CC(=Nc2ccc3c(c2)C(Br)c2ccccc2-3)O1` (stereo not drawn) yielded a TGI [2] of over 100 µM, a TGI [4] of over 100 µM and a TGI [5] of over 100 µM. It also gave a TGI [6] of over 100 µM.
`CC1=C(C(=O)Nc2ccc([N+](=O)[O-])cc2)C(c2ccc(N(C)C)cc2)C(C(=O)Nc2ccc([N+](=O)[O-])cc2)=C(C)N1` gave a TGI [1] of 67 µM, a TGI [2] of 42.3 µM and a TGI [3] of 37 µM. It also gave a TGI [4] of over 100 µM, a TGI [9] of 89.5 µM and a TGI [5] of 52.6 µM. For the same compound, the TGI [6] was 52.8 µM, the TGI [7] was 42.3 µM and the TGI [8] was 81.8 µM.
For `CCCCN(CCCC)C(=O)C(=O)C(C#N)c1ccc(C)cc1` (stereo not drawn), the TGI [1] was over 100 µM, the TGI [2] was over 100 µM and the TGI [3] was over 100 µM. For the same compound, the TGI [4] was over 100 µM, the TGI [9] was over 100 µM and the TGI [5] was over 100 µM. The TGI [6] was over 100 µM, the TGI [7] was over 100 µM and the TGI [8] was over 100 µM.
Work on `COc1cc(C2c3cc4c(cc3C(NCC(O)CO)C3COC(=O)[C@H]23)OCO4)cc(OC)c1OC` (stereo partly drawn) yielded a TGI [1] of over 100 µM, a TGI [2] of over 100 µM and a TGI [3] of over 100 µM. It also gave a TGI [4] of over 100 µM, a TGI [5] of over 100 µM and a TGI [6] of 0.797 µM. The TGI [7] was 0.655 µM.
`CN(C(=O)C12C3C4C1C1C2C3C41C(=O)C(C)(C)C)C(C)(C)C` (stereo not drawn) showed a TGI [1] of over 100 µM, a TGI [2] of over 100 µM and a TGI [3] of over 100 µM. The TGI [4] was over 100 µM, the TGI [9] was over 100 µM and the TGI [5] was over 100 µM. For the same compound, the TGI [6] was over 100 µM and the TGI [8] was over 100 µM.
`COc1ccc2c(c1)c(-c1nc(-c3cn(C)c4ncccc34)cs1)cn2CCCN1CCCCC1` showed a GI50 [1] of 1.64 µM, a TGI [1] of 3.25 µM and a GI50 [2] of 1.71 µM. The TGI [2] was 3.36 µM, the GI50 [10] was 1.83 µM and the TGI [10] was 4.28 µM. The GI50 [3] was 1.78 µM, the TGI [3] was 3.45 µM and the GI50 [4] was 1.51 µM. It also gave a TGI [4] of 2.87 µM, a GI50 [5] of 1.64 µM and a TGI [5] of 3.25 µM. For the same compound, the GI50 [6] was 1.81 µM, the TGI [6] was 3.49 µM and the GI50 [8] was 2.4 µM. For the same compound, the TGI [8] was 6.22 µM.
